The record followed here is US11524966B1 (Valo Early Discovery, Inc., priority 2017, dated 2022).

The target in the assay is T1, USP28 (His-tagged USP28-FL-mammalian) (Homo sapiens, UniProt Q96RU2).
T1 construct: Expression of USP28 (1-1077)-TEV-6*His (pTT5 vector); made in house; host or cells: Expi293f cells (pTT5 vector)
T1 sequence (Q96RU2 1-1077): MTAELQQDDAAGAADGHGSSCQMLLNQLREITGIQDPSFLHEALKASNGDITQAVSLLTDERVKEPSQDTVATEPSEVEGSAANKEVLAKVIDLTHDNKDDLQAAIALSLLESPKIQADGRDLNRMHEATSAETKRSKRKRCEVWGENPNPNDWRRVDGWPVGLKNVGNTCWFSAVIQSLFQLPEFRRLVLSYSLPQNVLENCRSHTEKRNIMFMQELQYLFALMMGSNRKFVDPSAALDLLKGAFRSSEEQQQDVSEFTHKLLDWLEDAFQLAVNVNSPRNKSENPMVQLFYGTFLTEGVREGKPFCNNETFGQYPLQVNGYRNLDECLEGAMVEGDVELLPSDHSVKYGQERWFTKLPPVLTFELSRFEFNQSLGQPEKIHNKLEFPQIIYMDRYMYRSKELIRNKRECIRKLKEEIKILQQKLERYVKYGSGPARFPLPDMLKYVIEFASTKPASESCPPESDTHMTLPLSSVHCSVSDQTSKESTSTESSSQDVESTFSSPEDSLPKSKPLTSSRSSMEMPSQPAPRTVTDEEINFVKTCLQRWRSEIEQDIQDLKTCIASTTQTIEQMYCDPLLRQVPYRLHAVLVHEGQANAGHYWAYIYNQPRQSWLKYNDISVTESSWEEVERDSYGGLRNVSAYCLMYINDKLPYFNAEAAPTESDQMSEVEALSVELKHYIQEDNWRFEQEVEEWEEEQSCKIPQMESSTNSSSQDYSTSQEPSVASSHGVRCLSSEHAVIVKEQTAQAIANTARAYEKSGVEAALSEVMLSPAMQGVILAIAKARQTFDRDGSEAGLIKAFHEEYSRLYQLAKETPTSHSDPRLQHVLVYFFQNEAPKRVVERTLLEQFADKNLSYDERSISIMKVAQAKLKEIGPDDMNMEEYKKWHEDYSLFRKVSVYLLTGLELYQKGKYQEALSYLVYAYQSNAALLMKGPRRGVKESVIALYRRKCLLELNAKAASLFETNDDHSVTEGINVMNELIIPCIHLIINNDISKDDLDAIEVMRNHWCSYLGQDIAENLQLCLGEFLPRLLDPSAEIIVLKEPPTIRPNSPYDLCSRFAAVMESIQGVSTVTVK
Nature of the assay: Ubiquitin-Rhodamine 110 Assay for USP28 Activity, Example A-1(a). To be noted: Ubiquitin-Rhodamine 110 assay, Example A-1(a); read-out: USP28 A-1(a) IC50 range. In kind it is biochemical. An outline of the steps:
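IC50 from 4-parameter logistic fit of percent inhibition versus no-enzyme and DMSO controls; compounds 25 μM to 1.3 nM, 3-fold. Ub-Rh110 cleavage (25 nM, below Km) by […] mammalian-expressed USP28-FL-His ran 45 min at room temperature, stopped with 10 mM citric acid, read ex 485/em 535.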
As a reminder, the IC50 is the midpoint of a concentration-inhibition curve. As to `Cc1ccc2c(N)c(C(=O)N[C@H]3COc4cc(C5CC6COCC(C5)N6)ccc4C3)sc2n1` (stereo partly drawn) [Example 125, 3-amino-6-methyl-N-[(3R)-7-{3-oxa-9-azabicyclo[3.3.1]nonan-7-yl}-3,4-dihydro-2H-1-benzopyran-3-yl]thieno[2,3-b]pyridine-2-carboxamide], the IC50 was 1 to 50 nM. Regarding `Cc1ccc2c(N)c(C(=O)N[C@H]3COc4c(ccc(N5CC6CCC(C5)N6)c4F)C3)sc2n1` [Example 103, 3-amino-N-[(3R)-7-{3,8-diazabicyclo[3.2.1]octan-3-yl}-8-fluoro-3,4-dihydro-2H-1-benzopyran-3-yl]-6-methylthieno[2,3-b]pyridine-2-carboxamide], the IC50 fell in the range of 1 to 50 nM. For `Cc1ccc2c(N)c(C(=O)N[C@H]3COc4cc(N5CC6CCC(C5)N6)c(C#N)c(F)c4C3)sc2n1` [Example 126, 3-amino-N-[(3R)-6-cyano-7-{3,8-diazabicyclo[3.2.1]octan-3-yl}-5-fluoro-3,4-dihydro-2H-1-benzopyran-3-yl]-6-methylthieno[2,3-b]pyridine-2-carboxamide], the IC50 lay in the range of 1 to 50 nM. As to `CO[C@@H]1CN(c2ccc3c(c2)OC[C@H](NC(=O)c2sc4nc(C)sc4c2N)C3)C[C@@H]1N` [Example 149, 6-amino-N-[(3R)-7-[(3S,4R)-3-amino-4-methoxypyrrolidin-1-yl]-3,4-dihydro-2H-1-benzopyran-3-yl]-2-methylthieno[2,3-d][1,3]thiazole-5-carboxamide], the IC50 was 1 to 50 nM.
